The values that follow come from ChEMBL document CHEMBL1148424, “Synthesis of novel melanocortin 4 receptor agonists and antagonists containing a succinamide core” (Bioorg Med Chem Lett, 2004).

For assay [1], the target named is T1, Melanocortin receptor 4 (Homo sapiens, UniProt P32245). Description: Percentage of maximal response with respect to alpha-MSH in cells expressing the melanocortin 4 receptor. It is filed as functional.
Assay [2] deals with T1, Melanocortin receptor 4. Kind of assay: Intracellular level of cAMP in cells expressing the melanocortin 4 receptor. Type of assay: functional.
The next assay deals with Melanocortin receptor 3 (Homo sapiens, UniProt P41968). Description: Inhibitory activity against human melanocortin 3 receptor.
Melanocortin receptor 3, sequence (P41968 whole entry): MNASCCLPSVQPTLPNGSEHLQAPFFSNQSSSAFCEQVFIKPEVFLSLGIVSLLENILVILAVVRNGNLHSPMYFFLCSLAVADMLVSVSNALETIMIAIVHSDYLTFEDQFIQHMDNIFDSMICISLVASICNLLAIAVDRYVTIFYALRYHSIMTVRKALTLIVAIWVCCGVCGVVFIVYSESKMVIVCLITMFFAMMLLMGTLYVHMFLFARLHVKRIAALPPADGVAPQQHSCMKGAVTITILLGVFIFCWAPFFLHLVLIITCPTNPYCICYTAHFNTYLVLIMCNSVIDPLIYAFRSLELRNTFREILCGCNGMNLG
Assay [3] concerns the target T1, Melanocortin receptor 4. Kind of assay: Inhibitory activity against [125I]NDP-alpha-MSH binding to the human melanocortin 4 receptor.
Assay [4] concerns the target Melanocyte-stimulating hormone receptor (Mus musculus, UniProt Q01727). Description: Inhibitory activity against mouse melanocortin 1 receptor.

Melanocyte-stimulating hormone receptor, sequence (Q01727 whole entry): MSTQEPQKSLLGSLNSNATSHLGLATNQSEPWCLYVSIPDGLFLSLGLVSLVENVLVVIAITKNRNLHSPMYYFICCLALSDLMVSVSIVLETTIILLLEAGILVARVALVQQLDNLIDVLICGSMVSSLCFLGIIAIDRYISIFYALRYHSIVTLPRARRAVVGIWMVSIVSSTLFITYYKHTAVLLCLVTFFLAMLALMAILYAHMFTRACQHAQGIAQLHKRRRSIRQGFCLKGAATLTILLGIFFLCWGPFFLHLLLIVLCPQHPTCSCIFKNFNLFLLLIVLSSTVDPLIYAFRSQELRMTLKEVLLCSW
T1 sequence (P32245 whole entry): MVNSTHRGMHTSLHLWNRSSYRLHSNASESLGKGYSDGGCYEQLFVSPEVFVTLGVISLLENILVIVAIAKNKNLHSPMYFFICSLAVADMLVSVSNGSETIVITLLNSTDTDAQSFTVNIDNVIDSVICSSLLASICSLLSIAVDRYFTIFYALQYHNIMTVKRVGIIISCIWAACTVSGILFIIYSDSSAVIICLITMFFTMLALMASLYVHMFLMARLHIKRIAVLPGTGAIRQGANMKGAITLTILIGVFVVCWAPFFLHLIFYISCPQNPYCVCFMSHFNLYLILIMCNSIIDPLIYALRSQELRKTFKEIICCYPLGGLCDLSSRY

Regarding `CCN(C(C)=O)C(C)c1ccccc1N1CCN(C(=O)[C@H](CC(=O)NC2CCC2)Cc2ccc(Cl)cc2)CC1` (some centres undefined), the Activation at Melanocortin receptor 4 [1] was 100%. Besides, a half-maximal effect at Melanocortin receptor 4 [2] (EC50) was put at 0.015 µM. Also, the IC50 – broadly, the concentration that gives 50% inhibition – was over 10 µM on Melanocortin receptor 3, 0.0058 µM at Melanocortin receptor 4 [3] and over 0.6 µM in assay [4].
`CC(C)CCN1CCN(C(=O)C[C@H](Cc2ccc(Cl)cc2)C(=O)N2CCN(c3ccccc3N(CC3CC3)S(C)(=O)=O)CC2)CC1` displayed an Activation on Melanocortin receptor 4 [1] of 0%. Besides, the concentration for a half-maximal effect (EC50) (as a rule, the midpoint of the concentration-response curve) on Melanocortin receptor 4 [2] was over 10 µM. Further, at Melanocortin receptor 4 [3], the half-inhibitory concentration (IC50) came to 0.0048 µM.
With `CCOC(=O)N1CCN(C(=O)C[C@H](Cc2ccc(Cl)cc2)C(=O)N2CCN(c3ccccc3N(CC3CC3)S(C)(=O)=O)CC2)CC1`, the Activation on Melanocortin receptor 4 [1] amounted to 0%. This compound also had an EC50 on Melanocortin receptor 4 [2] of over 10 µM. Moreover, the IC50 is over 10 µM on Melanocortin receptor 3, 0.0014 µM at Melanocortin receptor 4 [3] and over 10 µM in assay [4].
On Melanocortin receptor 4 [1], `CC(C)(C)OC(=O)N1CCN(C(=O)C[C@H](Cc2ccc(Cl)cc2)C(=O)N2CCN(c3ccccc3N(CC3CC3)S(C)(=O)=O)CC2)CC1` displayed an Activation of 0%. For the same compound, the EC50 at Melanocortin receptor 4 [2] is over 10 µM. Moreover, the results for the IC50 (at Melanocortin receptor 3; at Melanocortin receptor 4 [3]; in assay [4]) were over 3.5 µM, 0.0033 µM and over 10 µM, respectively.
`CC(C)(C)CC(=O)N1CCN(C(=O)C[C@H](Cc2ccc(Cl)cc2)C(=O)N2CCN(c3ccccc3N(CC3CC3)S(C)(=O)=O)CC2)CC1` returned an Activation at Melanocortin receptor 4 [1] of 45%. Besides, at Melanocortin receptor 4 [2], the response was half-maximal at 0.074 µM (EC50). For the same compound, the concentration for half-maximal inhibition (IC50) against Melanocortin receptor 3 was over 10 µM; at Melanocortin receptor 4 [3] it was under 0.0001 µM; in assay [4], over 1.8 µM.
Regarding `CCN(C(C)=O)C(C)c1ccccc1N1CCN(C(=O)[C@H](CC(=O)N2CCSC2)Cc2ccc(Cl)cc2)CC1` (some centres undefined), the Activation at Melanocortin receptor 4 [1] came to 80%. Further, the EC50 at Melanocortin receptor 4 [2] is 0.53 µM. The same compound registered an IC50 at Melanocortin receptor 4 [3] of 0.0094 µM.
In the case of `CS(=O)(=O)N(CC1CC1)c1ccccc1N1CCN(C(=O)[C@H](CC(=O)N2CCN(C(=O)c3ccccc3)CC2)Cc2ccc(Cl)cc2)CC1`, at Melanocortin receptor 4 [1], the Activation was determined as 55%. Besides, the response at Melanocortin receptor 4 [2] was half-maximal at 0.083 µM (EC50). This compound also registered a 50% inhibitory concentration (IC50) on Melanocortin receptor 4 [3] of 0.0044 µM.
As for `CCCN1CCN(C(=O)C[C@H](Cc2ccc(Cl)cc2)C(=O)N2CCN(c3ccccc3N(CC3CC3)S(C)(=O)=O)CC2)CC1`, at Melanocortin receptor 4 [1], the Activation came to 0%. At Melanocortin receptor 4 [2], this compound displayed an EC50 of over 10 µM. In addition, the IC50 on Melanocortin receptor 3 is over 10 µM; on Melanocortin receptor 4 [3] it was 0.0089 µM; in assay [4], over 10 µM.
On Melanocortin receptor 4 [1], `CS(=O)(=O)N(CC1CC1)c1ccccc1N1CCN(C(=O)[C@H](CC(=O)N2CCN(CC3CC3)CC2)Cc2ccc(Cl)cc2)CC1` came in with an Activation of 0%. For the same compound, the EC50 at Melanocortin receptor 4 [2] is over 10 µM. The IC50 on Melanocortin receptor 4 [3] is 0.003 µM.
Turning to `CS(=O)(=O)N1CC2(CCN(C(=O)[C@@H](Cc3ccc(Cl)cc3)NC(=O)[C@H]3Cc4ccccc4CN3)CC2)c2ccccc21`, at Melanocortin receptor 4 [1], the Activation was 100%. In addition, on Melanocortin receptor 4 [2], the EC50 amounted to 0.0052 µM. In addition, the figures for the IC50 (on Melanocortin receptor 3; on Melanocortin receptor 4 [3]; in assay [4]) were 2.9 µM, 0.066 µM and 0.153 µM, respectively.
At Melanocortin receptor 4 [1], `CCN1CCN(C(=O)C[C@H](Cc2ccc(Cl)cc2)C(=O)N2CCN(c3ccccc3N(CC3CC3)S(C)(=O)=O)CC2)CC1` came in with an Activation of 0%. In addition, on Melanocortin receptor 4 [2], the EC50 was over 10 µM. In addition, the IC50 at Melanocortin receptor 4 [3] stood at 0.0095 µM.
Compound `CCN(C(C)=O)C(C)c1ccccc1N1CCN(C(=O)[C@H](CC(=O)NCc2ccccc2F)Cc2ccc(Cl)cc2)CC1` (some centres undefined) returned an Activation at Melanocortin receptor 4 [1] of 100%. In addition, a half-maximal effect at Melanocortin receptor 4 [2] (EC50) was put at 0.089 µM. Further, the IC50 was over 10 µM against Melanocortin receptor 3, 0.013 µM at Melanocortin receptor 4 [3] and over 1.6 µM in assay [4].
With `CC(=O)N1CCN(C(=O)C[C@H](Cc2ccc(Cl)cc2)C(=O)N2CCN(c3ccccc3N(CC3CC3)S(C)(=O)=O)CC2)CC1`, the Activation at Melanocortin receptor 4 [1] was 0%. This compound returned an EC50 on Melanocortin receptor 4 [2] of over 10 µM. Moreover, the 50% inhibitory concentration (IC50) against Melanocortin receptor 3 was over 10 µM; at Melanocortin receptor 4 [3] it was 0.011 µM; in assay [4], over 10 µM.
On Melanocortin receptor 4 [1], `CCN(C(C)=O)C(C)c1ccccc1N1CCN(C(=O)[C@H](CC(=O)NCc2ccccn2)Cc2ccc(Cl)cc2)CC1` (some centres undefined) returned an Activation of 95%. Further, a half-maximal response on Melanocortin receptor 4 [2] (EC50) required 0.037 µM. In addition, the IC50 on Melanocortin receptor 4 [3] is 0.032 µM.
`CS(=O)(=O)N(CC1CC1)c1ccccc1N1CCN(C(=O)[C@H](CC(=O)N2CCNCC2)Cc2ccc(Cl)cc2)CC1` gave an Activation on Melanocortin receptor 4 [1] of 70%. This compound also registered a concentration giving a half-maximal response (EC50) at Melanocortin receptor 4 [2] of 2 µM. Also, the IC50 is over 8 µM on Melanocortin receptor 3, 0.22 µM on Melanocortin receptor 4 [3] and over 8 µM in assay [4].
`CCN(C(C)=O)C(C)c1ccccc1N1CCN(C(=O)[C@H](CC(=O)N2CCC2)Cc2ccc(Cl)cc2)CC1` (some centres undefined) showed an Activation on Melanocortin receptor 4 [1] of 90%. The same compound registered an EC50 at Melanocortin receptor 4 [2] of 0.34 µM. Also, the IC50 was over 10 µM against Melanocortin receptor 3, 0.019 µM at Melanocortin receptor 4 [3] and over 1.4 µM in assay [4].
Consider `CS(=O)(=O)N(CC1CC1)c1ccccc1N1CCN(C(=O)[C@@H](Cc2ccc(Cl)cc2)NC(=O)C2CCNCC2)CC1`, for which, on Melanocortin receptor 4 [1], the Activation is over 90%. The compound further came in with an EC50 on Melanocortin receptor 4 [2] of under 0.0001 µM. Besides, the IC50 on Melanocortin receptor 4 [3] is 0.13 µM.
The compound `CCN(C(C)=O)C(C)c1ccccc1N1CCN(C(=O)[C@H](CC(=O)N2CCN(C(=O)OC(C)(C)C)CC2)Cc2ccc(Cl)cc2)CC1` (some centres undefined) gave an Activation on Melanocortin receptor 4 [1] of 0%. The compound further had an EC50 at Melanocortin receptor 4 [2] of over 10 µM. Further, at Melanocortin receptor 4 [3], the half-maximal inhibitory concentration (IC50) was found to be 0.002 µM.
